Measured values taken from paper PMC4829572, “Purification and characterization of endo β-1,4-D-glucanase from Trichoderma harzianum strain HZN11 and its application in production of bioethanol from sweet sorghum bagasse” (3 Biotech, 2016).

Target: T1, endo β-1,4-D-glucanase
T1 construct: gene egl1; native secreted enzyme purified from solid state culture (ammonium sulfate, DEAE-Sepharose, Sephadex G-100); ~55 kDa on SDS-PAGE, monomer
Assay: inhibition of CMC hydrolysis, DNS reducing sugar assay, Lineweaver-Burk plot
Assay type: biochemical, Trichoderma harzianum
Settings: competitive; substrate carboxymethyl cellulose; cellobiose 5 and 10 mM
From the text: inhibition of CMC hydrolysis, DNS reducing sugar assay, Lineweaver-Burk plot on endo β-1,4-D-glucanase | cellobiose to be competitive inhibitor of endo β-1,4-D-glucanase in the presence of CMC substrate

For `OC[C@H]1O[C@@H](O[C@H]2[C@H](O)[C@@H](O)C(O)O[C@@H]2CO)[C@H](O)[C@@H](O)[C@@H]1O` (stereo partly shown) [cellobiose], the Ki was 66 mM.
